Results as given in patent US9873883B2, “Glyphosate resistant plants and associated methods” (Dow AgroSciences LLC, priority 2012, dated 2018).
pIC50: −log10 of the molar value. Read-outs that look alike come from different tables or passages of the source.

Key:
[1] = tested on: Arabidopsis transformed with TraP13 v2::dgt-14 (pDAB105529); assay: Postemergence glyphosate tolerance, visual injury; assay type: in vivo, Arabidopsis thaliana; details: 2 weeks after application
[2] = target: T1, Brassica napus (canola) EPSP synthase DGT-3 (GENBANK P17688) variant DGT-3 v7 (G→A, P→S; GAPS) (Brassica napus, UniProt P17688, G173A/P178S); assay: In vitro kinetic assay (inorganic phosphate production, malachite green); assay type: biochemical; details: IC50 (glyphosate)
T1 construct: made in house; host or cells: E. coli Rosetta2 (DE3)

[3] = target: Glycine max (soybean) EPSP synthase DGT-1 variant DGT-1 v7 (G→A, P→S; GAPS) (Glycine max, UniProt I1J7U9, G182A/P187S); assay: as above; assay type: biochemical
[4] = target: T2, Triticum aestivum (wheat) EPSP synthase DGT-7 variant DGT-7 v7 (G→A, P→S; GAPS) (Triticum aestivum, UniProt B5M6A1, G167A/P172S); assay: as above; assay type: biochemical; details: IC50 (glyphosate)
T2 construct: GAPS double mutant
T2 sequence (B5M6A1 entry or part of it G167A/P172S): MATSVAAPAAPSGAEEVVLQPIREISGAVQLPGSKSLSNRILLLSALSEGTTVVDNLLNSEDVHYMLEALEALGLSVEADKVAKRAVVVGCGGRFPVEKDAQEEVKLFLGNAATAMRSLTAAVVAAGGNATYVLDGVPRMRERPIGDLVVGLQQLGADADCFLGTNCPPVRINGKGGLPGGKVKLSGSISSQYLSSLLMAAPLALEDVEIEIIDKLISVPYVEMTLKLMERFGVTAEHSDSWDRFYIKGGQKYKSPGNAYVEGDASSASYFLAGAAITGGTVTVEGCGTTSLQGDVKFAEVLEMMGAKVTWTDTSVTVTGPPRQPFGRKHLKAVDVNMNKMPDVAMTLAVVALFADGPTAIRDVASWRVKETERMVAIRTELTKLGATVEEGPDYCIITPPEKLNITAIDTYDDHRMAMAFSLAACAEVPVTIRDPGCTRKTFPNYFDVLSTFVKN

Glycine max (soybean) EPSP synthase DGT-1 variant DGT-1 v7 (G→A, P→S; GAPS), sequence (I1J7U9 entry or part of it G182A/P187S): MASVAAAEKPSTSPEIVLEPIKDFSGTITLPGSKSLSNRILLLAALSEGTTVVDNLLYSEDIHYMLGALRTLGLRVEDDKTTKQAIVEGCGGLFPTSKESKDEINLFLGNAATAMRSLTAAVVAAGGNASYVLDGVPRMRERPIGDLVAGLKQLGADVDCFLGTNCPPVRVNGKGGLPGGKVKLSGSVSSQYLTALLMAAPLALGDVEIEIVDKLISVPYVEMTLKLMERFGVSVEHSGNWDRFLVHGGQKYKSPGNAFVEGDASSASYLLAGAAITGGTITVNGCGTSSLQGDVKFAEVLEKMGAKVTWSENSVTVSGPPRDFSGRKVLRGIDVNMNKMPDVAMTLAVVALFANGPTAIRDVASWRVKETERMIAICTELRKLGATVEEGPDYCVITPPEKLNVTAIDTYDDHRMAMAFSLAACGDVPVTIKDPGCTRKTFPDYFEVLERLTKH
T1 sequence (P17688 73-516 G173A/P178S, one chain of several): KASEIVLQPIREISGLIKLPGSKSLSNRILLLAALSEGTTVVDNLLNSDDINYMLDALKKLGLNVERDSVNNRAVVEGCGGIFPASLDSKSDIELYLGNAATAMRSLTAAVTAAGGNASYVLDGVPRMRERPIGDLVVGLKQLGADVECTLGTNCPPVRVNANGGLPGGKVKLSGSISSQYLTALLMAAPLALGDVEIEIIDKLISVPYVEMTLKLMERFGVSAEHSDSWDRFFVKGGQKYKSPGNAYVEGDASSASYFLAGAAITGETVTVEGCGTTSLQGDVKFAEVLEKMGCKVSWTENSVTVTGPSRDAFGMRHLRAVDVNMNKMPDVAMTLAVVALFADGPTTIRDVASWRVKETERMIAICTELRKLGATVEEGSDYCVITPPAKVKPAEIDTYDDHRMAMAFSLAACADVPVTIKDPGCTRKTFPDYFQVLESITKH

O=C(O)CNCP(=O)(O)O [glyphosate, N-(phosphonomethyl)glycine]
Visual % injury (Ave) ([1]; T2, 840 g ae/ha): 1.3% | Visual % injury (Ave) ([1]; T3, 840 g ae/ha): 0.0% | pIC50 ([2]; at 60 μM PEP): 1.38 | pIC50 ([2]; at 1 mM PEP, values greater than 50 are estimates): 1.30 | pIC50 [3]: < 1.10 | pIC50 ([3]; read-out: IC50 (glyphosate), at 60 μM PEP, values greater than 50 are estimates): < 1.10 | pIC50 ([4]; at 60 μM PEP): 1.81 | pIC50 ([4]; at 1 mM PEP): 1.71
